Measured values: patent publication US20260176320A1, “MODULATORS OF G-PROTEIN COUPLED RECEPTORS” (priority 2018, published 2026)

How the values were obtained:
Assay type in all cases: cell-based
GLP-1R [1] = target: T1, GLP-1R (Homo sapiens, UniProt P43220); test: HitHunter cAMP assay (GLP-1R); details: Table 3A, cAMP; for EC50: read-out: EC50 GLP-1R/nM
Summary of the method: (§1)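 Suspension cells (10,000/well) in HBSS with 10 mM HEPES, 625 μM IBMX, 0.2% BSA exposed to 22-point 2-fold agonist series in duplicate for 30 min at room temperature. cAMP measured by antibody immunocompetition with overnight development, luminescence read-out.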

GIP-R = target: T2, GIP-R (Homo sapiens, UniProt P48546); test: HitHunter cAMP assay (GIP-R); details: Table 3A, cAMP; for Emax: read-out: (Emax) GIP-R; for EC50: read-out: EC50 GIP-R/nM
T2 sequence (P48546 22-466): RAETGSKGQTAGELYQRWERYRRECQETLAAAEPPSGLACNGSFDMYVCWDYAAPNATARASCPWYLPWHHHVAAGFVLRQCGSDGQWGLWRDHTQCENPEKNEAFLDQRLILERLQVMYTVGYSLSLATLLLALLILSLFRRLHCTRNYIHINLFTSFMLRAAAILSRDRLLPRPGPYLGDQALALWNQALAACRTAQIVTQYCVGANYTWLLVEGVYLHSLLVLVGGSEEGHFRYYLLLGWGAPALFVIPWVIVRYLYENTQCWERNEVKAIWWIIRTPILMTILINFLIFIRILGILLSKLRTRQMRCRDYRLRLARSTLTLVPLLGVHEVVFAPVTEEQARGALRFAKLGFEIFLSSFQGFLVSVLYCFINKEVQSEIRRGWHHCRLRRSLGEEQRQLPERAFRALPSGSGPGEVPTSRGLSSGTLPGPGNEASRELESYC
Summary of the method: as §1

GLP-1R [2] = target: T1, GLP-1R; test: PathHunter β-arrestin assay; details: PathHunter β-arrestin assay; read-out: β-arrestin activity EC50
Summary of the method: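 Cells (5,000/well) plated overnight, then exposed to a 22-point 2-fold agonist dilution series in medium with 0.2% BSA for 90 min at 37 °C, 5% CO2. PathHunter detection reagent added; after 3 h at room temperature in the dark, luminescence read.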

T1 sequence (P43220 24-463): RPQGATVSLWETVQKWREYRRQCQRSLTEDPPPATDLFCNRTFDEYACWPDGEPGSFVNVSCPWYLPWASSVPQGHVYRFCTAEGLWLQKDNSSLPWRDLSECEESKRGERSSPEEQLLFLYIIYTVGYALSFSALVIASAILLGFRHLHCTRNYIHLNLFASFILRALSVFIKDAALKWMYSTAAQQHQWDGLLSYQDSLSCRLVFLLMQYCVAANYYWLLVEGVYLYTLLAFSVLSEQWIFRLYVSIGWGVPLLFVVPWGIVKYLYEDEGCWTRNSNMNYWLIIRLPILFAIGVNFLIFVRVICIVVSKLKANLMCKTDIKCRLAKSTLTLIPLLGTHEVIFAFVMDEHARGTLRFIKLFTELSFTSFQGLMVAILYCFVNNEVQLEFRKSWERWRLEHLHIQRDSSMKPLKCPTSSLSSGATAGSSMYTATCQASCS

CCCCCCCCCCCCCCCC(=O)N[C@@H](CCC(=O)NCCCC[C@H](NC(=O)[C@H](CO)NC(=O)[C@@H]1CCCN1C(=O)[C@@H]1CCCN1C(=O)[C@@H]1CCCN1C(=O)[C@H](C)NC(=O)CNC(=O)[C@H](CO)NC(=O)[C@H](CO)NC(=O)[C@@H]1CCCN1C(=O)CNC(=O)CNC(=O)[C@H](C)NC(=O)[C@H](CC(C)C)NC(=O)[C@H](CC(C)C)NC(=O)[C@H](Cc1c[nH]c2ccccc12)NC(=O)[C@H](CC(N)=O)NC(=O)[C@@H](NC(=O)[C@H](Cc1ccccc1)NC(=O)[C@H](CCC(=O)O)NC(=O)C(C)(C)NC(=O)[C@H](C)NC(=O)[C@H](C)NC(=O)[C@H](CCC(N)=O)NC(=O)[C@H](CCCCN)NC(=O)[C@H](CC(=O)O)NC(=O)[C@H](CC(C)C)NC(=O)[C@H](Cc1ccc(O)cc1)NC(=O)[C@@H](NC(=O)[C@H](CO)NC(=O)[C@H](Cc1ccc(O)cc1)NC(=O)[C@H](CC(=O)O)NC(=O)[C@H](CO)NC(=O)[C@@H](NC(=O)[C@H](Cc1ccccc1)NC(=O)[C@@H](NC(=O)CNC(=O)[C@H](CCC(=O)O)NC(=O)CN(C)C(=O)CN1CCCCC1=O)[C@@H](C)O)[C@@H](C)O)[C@@H](C)CC)C(C)C)C(N)=O)C(=O)O [Compound 205]
EC50 (GLP-1R [1]): < 0.1 nM
Emax (GIP-R): 61%
EC50 (GIP-R): 1 to 10 nM
EC50 (GLP-1R [2]): > 1000 nM

CCCCCCCCCCCCCCCC(=O)N[C@@H](CCC(=O)NCCCC[C@H](NC(=O)[C@H](CO)NC(=O)[C@@H]1CCCN1C(=O)[C@@H]1CCCN1C(=O)[C@@H]1CCCN1C(=O)[C@H](C)NC(=O)CNC(=O)[C@H](CO)NC(=O)[C@H](CO)NC(=O)[C@@H]1CCCN1C(=O)CNC(=O)CNC(=O)[C@H](C)NC(=O)[C@H](CC(C)C)NC(=O)[C@H](CC(C)C)NC(=O)[C@H](Cc1c[nH]c2ccccc12)NC(=O)[C@H](CC(N)=O)NC(=O)[C@@H](NC(=O)[C@H](Cc1ccccc1)NC(=O)[C@H](CCC(=O)O)NC(=O)C(C)(C)NC(=O)[C@H](C)NC(=O)[C@H](C)NC(=O)[C@H](CCC(N)=O)NC(=O)[C@H](CCCCN)NC(=O)[C@H](CC(=O)O)NC(=O)[C@H](CC(C)C)NC(=O)[C@H](Cc1ccc(O)cc1)NC(=O)[C@@H](NC(=O)[C@H](CO)NC(=O)[C@H](Cc1ccc(O)cc1)NC(=O)[C@H](CC(=O)O)NC(=O)[C@H](CO)NC(=O)[C@@H](NC(=O)[C@H](Cc1ccccc1)NC(=O)[C@@H](NC(=O)CNC(=O)[C@H](CCC(=O)O)NC(=O)CN(C)C(=O)CCN1CCCCC1=O)[C@@H](C)O)[C@@H](C)O)[C@@H](C)CC)C(C)C)C(N)=O)C(=O)O [Compound 206]
EC50 (GLP-1R [1]): < 0.1 nM
Emax (GIP-R): 18%
EC50 (GIP-R): 100 to 1000 nM
EC50 (GLP-1R [2]): > 1000 nM

CCCCCCCCCCCCCCCC(=O)N[C@@H](CCC(=O)NCCCC[C@H](NC(=O)[C@H](CO)NC(=O)[C@@H]1CCCN1C(=O)[C@@H]1CCCN1C(=O)[C@@H]1CCCN1C(=O)[C@H](C)NC(=O)CNC(=O)[C@H](CO)NC(=O)[C@H](CO)NC(=O)[C@@H]1CCCN1C(=O)CNC(=O)CNC(=O)[C@H](C)NC(=O)[C@H](CC(C)C)NC(=O)[C@H](CC(C)C)NC(=O)[C@H](Cc1c[nH]c2ccccc12)NC(=O)[C@H](CC(N)=O)NC(=O)[C@@H](NC(=O)[C@H](Cc1ccccc1)NC(=O)[C@H](CCC(=O)O)NC(=O)C(C)(C)NC(=O)[C@H](C)NC(=O)[C@H](C)NC(=O)[C@H](CCC(N)=O)NC(=O)[C@H](CCCCN)NC(=O)[C@H](CC(=O)O)NC(=O)[C@H](CC(C)C)NC(=O)[C@H](Cc1ccc(O)cc1)NC(=O)[C@@H](NC(=O)[C@H](CO)NC(=O)[C@H](Cc1ccc(O)cc1)NC(=O)[C@H](CC(=O)O)NC(=O)[C@H](CO)NC(=O)[C@@H](NC(=O)[C@H](Cc1ccccc1)NC(=O)[C@@H](NC(=O)CNC(=O)[C@H](CCC(=O)O)NC(=O)C(C)(C)NC(=O)CN1CCCCC1=O)[C@@H](C)O)[C@@H](C)O)[C@@H](C)CC)C(C)C)C(N)=O)C(=O)O [Compound 209]
Emax (GLP-1R [1]; read-out: (Emax) GLP-1R): 94%
EC50 (GLP-1R [1]): < 0.1 nM
Emax (GIP-R): 27%
EC50 (GIP-R): 10 to 100 nM
EC50 (GLP-1R [2]): 10 to 1000 nM
